For 110 compounds, melting point results are on record in a melting point compilation (Tetko et al.).

The melting point is the temperature of the solid-liquid transition.

Compound `CC(=O)C1CC(CC(=O)O)C1(C)C` (stereo not given) showed a melting point of 104 to 107 °C. The same measure for `COC(=O)c1cc2ccccc2n1C(=O)OC(C)(C)C`: 66 to 67 °C; for `CCc1ccc(C(N)=O)cc1`: 163 °C. The same measure for `C1COCCNCCOCCOCCN1`: 89 to 92 °C; for `O=C1CCC(c2ccccc2)(C2CCN(Cc3ccccc3)CC2)C(=O)N1` (stereo not given): 156 °C.

The compound `COc1ccc(Cl)c(N)c1` came in with a melting point of 27 °C. In the case of `CC1=C(C(=O)OCCC(C)C)C(c2ccco2)NC(=O)N1` (stereo not given), the melting point amounted to 176 °C. The value for `O=C(n1ccnc1)C(F)(F)C(F)(F)C(F)(F)F` was 11 °C. The value for `Cc1ccc(-c2ccc(C)s2)s1` was 65 to 68 °C. `Cn1c(=O)[nH]c2ccccc21` showed a melting point of 192 to 196 °C. The same measure for `CC(=O)Nc1cc(Cl)ccc1C(=O)O`: 202 to 207 °C. The same measure for `CCCNc1cc(=O)oc2ccccc12`: 111 °C; for `COC(=O)c1coc(CCl)n1`: 74 to 76 °C. Compound `O=C(O)c1ccc(-c2csnn2)cc1` yielded a melting point of 230 °C. The same measure for `O=C(O)C(=O)Nc1ccccc1`: 150 °C. The same measure for `Cc1cccc2ccccc12`: 34 °C; for `CC(=O)c1cc(F)cc(F)c1`: 39 °C; for `O=C1N[C@H](Cc2ccccc2)CO1`: 87 to 90 °C. The same measure for `Cc1cc(Cl)cc2c(O)c(C(=O)O)cnc12`: 303 to 308 °C. The compound `CCCCCCCCCC[C@H](O)CO` returned a melting point of 69 to 72 °C. As to `CC1(C)CC2(CC(C)(C)c3cc(O)c(O)cc32)c2cc(O)c(O)cc21`, the melting point was determined as 300 °C. `CNC(=O)CC#N` registered a melting point of 82 to 84 °C. The same measure for `CC(O)C(NC(=O)OCc1ccccc1)C(=O)O` (stereo not given): 103 °C. In the case of `O=C(O)c1cnccn1`, the melting point was 222 to 225 °C.

Compound `CCCCCCCCCCCCC#N` came in with a melting point of 9.7 °C. The value for `Clc1ccc(O[Si]23OCCN(CCO2)CCO3)cc1` was 166 °C. The same measure for `O=C(OCC(=O)N1CCC(O)CC1)c1ccccc1`: 122 °C; for `O=C(c1ccc(Cl)c([N+](=O)[O-])c1)C1CC1`: 78 to 80 °C. For `Clc1cc(Br)ccc1Br`, the melting point was found to be 40 °C. The same measure for `CC(C)NC(=O)C(C(F)(F)F)C(F)(F)F`: 136 °C. The same measure for `Cc1ccc(-c2csc(/C(C#N)=N/Nc3ccc(F)cc3)n2)cc1`: 196 °C; for `NNc1cc(C(F)(F)F)ccc1Cl`: 64 to 68 °C; for `CN(C)C(=S)NN`: 149 to 153 °C.

`N#Cc1ccc(S(=O)(=O)C(F)(F)F)cc1`: the melting point worked out at 90 °C. The value for `O=C(O)c1cccc(F)c1C(=O)O` was 171 to 175 °C.

`CC12CCCC1C1CCC(CC(=O)O)C(C)(CC(=O)O)C1CC2` (stereo not given) showed a melting point of 229 °C. The same measure for `COC(=O)c1cnc(NN)nc1C(F)(F)F`: 132 to 134 °C; for `CC1(C)OC2C(CO)OC(n3cnc4c(N)ncnc43)C2O1` (stereo not given): 221 to 222 °C. The value for `O=C(O)c1cnc2ccc(OC(F)(F)F)cc2c1O` was 245 °C. The same measure for `NN=C(/C(=N/N)c1ccc2ccccc2c1)c1ccccc1`: 163 °C; for `O=C(Cc1ccccc1)SSC(=O)Cc1ccccc1`: 59 °C. `CC1(C)C(C=C(Br)Br)C1C(=O)OC(C#N)c1cccc(Oc2ccccc2)c1` (stereo not given): the melting point turned out to be 100 °C.

Take `CCCOc1cc(O)cc(OCCC)c1`: the melting point was in the range of 43 to 48 °C. `CC(=O)O[C@]12CC[C@@H](C(C)(C)C)C[C@H]1O[C@@H]2c1c(F)c(F)c(F)c(F)c1F` gave a melting point of 83 °C. The value for `O=C1NC2=Cc3ccccc3C2(O)Cc2ccccc21` (stereo not given) was 209 °C; that for `O=S(=O)(Cl)c1cc(Cl)c(O)c(Cl)c1` was 119 °C; that for `COc1cc(C(=O)O)cc(OCc2ccccc2)c1OC` was 178 °C. The same measure for `O=S(=O)(Cl)c1ccccc1C(F)(F)F`: 23 °C; for `CCOc1ccc(NC(N)=O)cc1`: 173 °C; for `OCc1ccc(OC2CCOCC2)cc1`: 81.5 to 82.5 °C.

For the compound `CCCc1ccc(OCC(=O)N2CCN(C(=O)COc3ccc(CCC)cc3OC)CC2)c(OC)c1`, the melting point is 128 °C. The same measure for `Cn1c(=O)cc(O)c2ccccc21`: 264 to 266 °C; for `CC1=NN(CN2CCCCC2)C(=O)/C1=N\Nc1cccnc1`: 177 °C.

`CC1(C)C=[N+]([O-])C(C)(C)N1O` registered a melting point of 160 to 163 °C. For `CNC(=O)ON=CC(C)(C)S(C)(=O)=O`, the melting point was found to be 141 °C. The value for `Nc1ncc(C(F)(F)F)cc1Br` was 100 °C; that for `O=[N+]([O-])c1cccc2cc[nH]c12` was 95 to 98 °C. The value for `CCCCCCCCCCCCCC1CCCCC1` was 18.5 °C; that for `C[Si](C)(C)[Si]([Si](C)(C)C)([Si](C)(C)C)[Si](C)(C)C` was 267 °C; that for `CC(=O)OCC(=O)C12OC(C)(C)OC1CC1C3CC(F)C4=CC(=O)C=CC4(C)C3(F)C(O)CC12C` (stereo not given) was 309 °C. `C=CC(=O)OCCCCO` returned a melting point of -112 °C. The value for `CC(C)C(C)(N)P(=O)(O)O` (stereo not given) was 248 to 255 °C; that for `O=[N+]([O-])c1ccccc1CBr` was 47 °C.

Consider `CC(C=CC=C(C)C=CC1=C(C)CCCC1(C)C)=CC=CC=C(C)C=CC=C(C)C=CC1=C(C)C(=O)CCC1(C)C`, for which the melting point worked out at 179 °C. The same measure for `Cc1c(C)c(C)c(C=O)c(C)c1C`: 146 to 148 °C; for `CC(OC(=O)c1ccc([N+](=O)[O-])cc1)c1cccc(C(C)OC(=O)c2ccc([N+](=O)[O-])cc2)c1` (stereo not given): 139 to 145 °C. The value for `O=C(O)C(O)Cc1ccccc1` (stereo not given) was 121 to 125 °C; that for `O=C(c1ccc(O)cc1)c1ccccc1F` was 117 °C; that for `CC(C)(C)OC(=O)C=P(c1ccccc1)(c1ccccc1)c1ccccc1` was 146 to 151 °C.

Turning to `Cn1nc(-c2ccc(Cl)cc2)cc1N`, the melting point fell in the range of 150 to 152 °C. `O=Cc1cc(O)c(O)cc1O` returned a melting point of 223 °C.

Turning to `Cc1cc[nH]c(=O)c1`, the melting point worked out at 130 °C.

Compound `CC(C)CCCC(C(=O)O)C1=CCC2(C)C(CCC3C4CCC(O)C4(C)CCC32)C1` (stereo not given) returned a melting point of 193 °C. Take `Nc1ccccc1NC1CCN(Cc2ccccc2)CC1`: the melting point was 111 to 112 °C. The value for `OCc1ccc(-c2ccco2)cc1` was 85 to 86 °C.

With `COC(=O)c1c2c(c(C)c3c1CC3=O)C(=O)C2`, the melting point turned out to be 168 °C. The same measure for `O=C1CCC(c2ccc(NC(=O)c3ccc(F)cc3)cc2)=NN1`: 285 to 287 °C.

With `CC(C)(O)C#N`, the melting point was -19 °C. The same measure for `COc1ccc2c(c1O)CN1CCC(=O)CC1C2O` (stereo not given): 157 °C; for `O=C(O)c1cncc(-c2cccs2)c1`: 261 °C; for `NC(=O)c1cccc(F)c1F`: 116 °C. Regarding `N#Cc1cccnc1Sc1ccccc1`, the melting point is 105 to 107 °C.

As for `CCCC1C2C(=O)N(c3ccccc3)C(=O)C2ON1c1ccccc1` (stereo not given), the melting point lay in the range of 107 to 108 °C. Turning to `CC(C)(C)OC(=O)N1CCN(Cc2ccc(C=O)cc2)CC1`, the melting point fell in the range of 57 to 59 °C. The value for `CCOc1ccc2ccc(=O)oc2c1` was 90 °C; that for `O=C(Oc1c(F)c(F)c(F)c(F)c1F)c1ccccc1OC1CCOCC1` was 62 to 64 °C; that for `O=C(c1ccccc1)c1coc(-c2ccc(Cl)cc2)c1S(=O)(=O)c1ccccc1` was 96 to 97 °C. For `O=c1[nH]c2scc(-c3ccccc3)c2c(=O)n1-c1ccc(F)cc1`, the melting point lay within 300 to 302 °C. The compound `O=C1CC2C(Br)CC1C2C(=O)O` (stereo not given) came in with a melting point of 178 to 182 °C.

Compound `COC(=O)c1sccc1-c1ccc(C=O)o1` had a melting point of 117 to 118 °C. The value for `O=c1[nH][nH]c(=O)c2cc3c(cc12)CCC3` was 310 °C. Turning to `COc1ccc2c3c(n(C)c2c1)CCCC3`, the melting point was determined as 96 °C. For the compound `O=C(Nc1ccc(Cl)c(Cl)c1)c1cc(Cl)ccc1O`, the melting point is 247 °C. On to `N[C@H](CO)[C@H](O)c1ccc([N+](=O)[O-])cc1`, for which the melting point lay in the range of 160 to 166 °C. `O=C(O)CCC(=O)Nc1ccccc1` gave a melting point of 148 °C. As for `O=Cc1ccc(SCc2ccco2)c([N+](=O)[O-])c1`, the melting point was 153 to 154 °C.

Turning to `O=C(O)c1cc(-c2ccco2)on1`, the melting point came to 151 °C. The same measure for `O=COc1ccc([N+](=O)[O-])cc1`: 72 °C; for `O=C(Nc1ccccc1C#CC#Cc1ccccc1NC(=O)c1ccccc1)c1ccccc1`: 211 °C.

Compound `CCN(CC)c1nc(C)cc(OP(=S)(OC)OC)n1` had a melting point of 21 °C. The same measure for `S=C=Nc1cc(Br)ccc1Br`: 49 to 51 °C. The value for `C#CC1(O)CCC2C3CCC4=C(CCC(=O)C4)C3CCC21C` (stereo not given) was 170 °C; that for `O=[N+]([O-])c1cn[nH]c1` was 161 °C.

Compound `CC1(C)OCC2OC3OC(C)(C)OC3C2O1` (stereo not given) yielded a melting point of 42 to 46 °C. The same measure for `Cn1c(CO)cnc1S`: 220 to 222 °C; for `NCCCNCCO`: 15 to 19 °C; for `COC(=O)c1c(C=O)c(C)n(C)c1C`: 124 to 127 °C. The same measure for `O=C1C=CC(=O)N1c1ccc(Cc2ccc(N3C(=O)C=CC3=O)cc2)cc1`: 155 to 159 °C; for `COc1c(Br)c(C)c(Br)c(Br)c1OC`: 90 °C. The value for `CC(C)(C)OC(=O)NC1CCNC1` (stereo not given) was 67 °C.
